Reference: patent US9718817B2, “Aryl and heteroaryl ether compounds as ROR gamma modulators” (Glenmark Pharmaceuticals S.A., priority 2014, dated 2017)

Target: T1, GST-tagged ROR gamma ligand binding domain (LBD) (Homo sapiens, UniProt P51449)
T1 construct: purchased Invitrogen
T1 sequence (P51449 269-508 limits assumed): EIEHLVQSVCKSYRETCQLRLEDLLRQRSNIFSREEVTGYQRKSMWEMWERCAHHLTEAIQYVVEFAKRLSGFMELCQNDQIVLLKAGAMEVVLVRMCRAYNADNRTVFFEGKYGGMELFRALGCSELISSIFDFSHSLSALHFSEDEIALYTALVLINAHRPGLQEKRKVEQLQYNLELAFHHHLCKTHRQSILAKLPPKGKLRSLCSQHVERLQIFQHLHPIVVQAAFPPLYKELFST
Assay: TR-FRET assay for ROR gamma (LanthaScreen co-activator peptide recruitment)
Type: biochemical
Conditions: for IC50: class symbols, from dose response curve; for inhibition at 1 µM: compound 1 μM; for inhibition at 1 µM / inhibition at 10 µM: TR-FRET ratio 520/495, percent of control; for inhibition at 10 µM: compound 10 μM
Method in brief: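 Antagonist mode: 10 nM GST-RORγ LBD pre-incubated with compound 1 h at 22 °C in 25 mM HEPES pH 7.4, 100 mM NaCl, 5 mM DTT, 0.01% BSA, 4% DMSO final. Then 300 nM fluorescein-D22 co-activator peptide plus 10 nM Tb-anti-GST added, 1 h at room temperature. IC50 by nonlinear regression of the 520/495 TR-FRET ratio as percent of no-compound control.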

SMILES | IC50 | inhibition at 1 µM | inhibition at 10 µM
CCS(=O)(=O)c1ccc(CC(=O)Nc2ccc3c(c2)nc(C(C)(C)Oc2ccc(F)c(F)c2)n3C)cc1 [Example 82, N-{2-[2-(3,4-Difluorophenoxy)propan-2-yl]-1-methyl-1H-benzimidazol-5-yl}-2-[4-(ethylsulfonyl)phenyl]acetamide] | 0.05 to 0.1 µM | 82% | 88.4%
CCS(=O)(=O)c1ccc(CC(=O)Nc2ccc(OC3(c4ccc(Cl)cc4)CCC3)cc2)cc1 [Example 31, N-{4-[1-(4-Chloro-phenyl)-cyclobutoxy]-phenyl}-2-(4-ethanesulfonyl-phenyl)-acetamide] | 0.05 to 0.1 µM | 81.9% | 89.1%
CCS(=O)(=O)c1ccc(CC(=O)Nc2ccc(OC3(c4ccc(Cl)cc4F)CCOCC3)cc2)cc1 [Example 36, N-(4-{[4-(4-Chloro-2-fluorophenyl)tetrahydro-2H-pyran-4-yl]oxy}phenyl)-2-[4-(ethylsulfonyl)phenyl]acetamide] | – | 69.9% | 74.7%
CCn1c(C(C)(C)Oc2ccc(Cl)cc2F)nc2cc(NC(=O)Cc3ccc(S(=O)(=O)CC)cc3)ccc21 [Example 86, N-{2-[2-(4-Chloro-2-fluorophenoxy)propan-2-yl]-1-ethyl-1H-benzimidazol-5-yl}-2-[4-(ethylsulfonyl)phenyl]acetamide] | < 0.05 µM | 92.8% | 93.8%
CCS(=O)(=O)c1ccc(CC(=O)Nc2ccc(C#CC(C)(C)Oc3c(F)cc(Cl)cc3F)cc2)cc1 [Example 75, N-{4-[3-(4-Chloro-2,6-difluoro-phenoxy)-3-methyl-but-1-yn-1-yl]-phenyl}-2-(4-ethanesulfonyl-phenyl)-acetamide] | < 0.05 µM | 83.2% | 84%
CCS(=O)(=O)c1ccc(CC(=O)Nc2ccc(C#CC(C)(C)Oc3ccc(F)c(F)c3F)cc2)cc1 [Example 72, 2-(4-Ethanesulfonyl-phenyl)-N-{4-[3-methyl-3-(2,3,4-trifluoro-phenoxy)-but-1-yn-1-yl]-phenyl}-acetamide] | < 0.05 µM | 76.2% | 79.7%
CCn1c(C(C)(C)Oc2ccc(Cl)c(F)c2)nc2cc(NC(=O)Cc3ccc(S(=O)(=O)CC)cc3)ccc21 [Example 87, N-{2-[1-(4-Chloro-3-fluoro-phenoxy)-1-methyl-ethyl]-1-ethyl-1H-benzoimidazol-5-yl}-2-(4-ethanesulfonyl-phenyl)-acetamide] | < 0.05 µM | 90.8% | 94.8%
CCS(=O)(=O)c1ccc(CC(=O)Nc2ccc3c(c2)nc(C(C)(C)Oc2ccc(F)cc2F)n3CCN(C)C)cc1 [Example 113, N-[2-[1-(2,4-Difluoro-phenoxy)-1-methyl-ethyl]-1-(2-dimethylamino-ethyl)-1H-benzoimidazol-5-yl]-2-(4-ethanesulfonyl-phenyl)-acetamide] | – | 15.6% | 52.4%
CCS(=O)(=O)c1ccc(CC(=O)Nc2ccc3c(c2)nc(C(C)(C)Oc2ccc(C(F)(F)F)cc2)n3C)cc1 [Example 81, 2-[4-(Ethylsulfonyl)phenyl]-N-(1-methyl-2-{2-[4-(trifluoromethyl)phenoxy]propan-2-yl}-1H-benzimidazol-5-yl)acetamide] | > 0.1 µM | 76% | 88.9%
CCS(=O)(=O)c1ccc(CC(=O)Nc2ccc(OC(C)(C)C(=O)N(C)c3ccc(Cl)cc3)cc2)cc1 [Example 128, N-(4-Chlorophenyl)-2-{4-[2-(4-ethanesulfonylphenyl)acetylamino]-phenoxy}-2-N-dimethylpropionamide] | – | 64.2% | 79.8%
CCS(=O)(=O)c1ccc(CC(=O)Nc2ccc(OC(C)(C)c3ccc(F)cc3F)c(F)c2)cc1 [Example 107, N-{4-[1-(2,4-Difluoro-phenyl)-1-methyl-ethoxy]-3-fluoro-phenyl}-2-(4-ethanesulfonyl-phenyl)-acetamide] | – | 59% | 59.5%
CCS(=O)(=O)c1ccc(CC(=O)Nc2ccc(OC(C)(C)c3ccc(Cl)c(F)c3)cc2)cc1 [Example 7, N-{4-[1-(4-Chloro-3-fluoro-phenyl)-1-methyl-ethoxy]-phenyl}-2-(4-ethanesulfonyl-phenyl)-acetamide] | – | 74.4% | 85.1%
CCS(=O)(=O)c1ccc(CC(=O)Nc2ccc(OC3(c4ccc(Cl)cc4F)CC3)c(F)c2)cc1 [Example 99, N-{4-[1-(4-Chloro-2-fluoro-phenyl)-cyclopropoxy]-3-fluoro-phenyl}-2-(4-ethanesulfonyl-phenyl)-acetamide] | < 0.05 µM | 81.7% | 81.1%
CCS(=O)(=O)c1ccc(CC(=O)Nc2ccc3c(c2)nc(C(C)(C)Oc2ccc(F)cc2F)n3C2CC2)cc1 [Example 125, N-{1-Cyclopropyl-2-[1-(2,4-difluorophenoxy)-1-methylethyl]-1H-benzoimidazol-5-yl}-2-(4-ethanesulfonyl-phenyl)-acetamide] | < 0.05 µM | 89.2% | 90.4%
CCS(=O)(=O)c1ccc(CC(=O)Nc2ccc(OC3(c4ccc(Cl)c(F)c4)CCOCC3)nc2)cc1 [Example 55, N-{6-[4-(4-Chloro-3-fluoro-phenyl)-tetrahydro-pyran-4-yloxy]-pyridin-3-yl}-2-(4-ethanesulfonyl-phenyl)-acetamide] | – | 75.5% | 80.3%
CCS(=O)(=O)c1ccc(CC(=O)Nc2ccc(OC3(c4ccc(Cl)c(F)c4)COC3)cc2)cc1 [Example 45, N-{4-[3-(4-Chloro-3-fluoro-phenyl)-oxetan-3-yloxy]-phenyl}-2-(4-ethanesulfonyl-phenyl)-acetamide] | < 0.05 µM | 76.8% | 85.7%
CCS(=O)(=O)c1ccc(CC(=O)Nc2ccc(C#CC(C)(C)Oc3ccc(OC(F)F)cc3)cc2)cc1 [Example 78, N-{4-[3-(4-Difluoromethoxy-phenoxy)-3-methyl-but-1-yn-1-yl]-phenyl}-2-(4-ethanesulfonyl-phenyl)-acetamide] | < 0.05 µM | 85.2% | 87.4%
CCn1c(C2(Oc3ccc(NC(=O)Cc4ccc(S(=O)(=O)CC)cc4)cc3)CCC2)nc2cc(F)ccc21 [Example 26, 2-(4-Ethanesulfonyl-phenyl)-N-{4-[1-(1-ethyl-5-fluoro-1H-benzoimidazol-2-yl)-cyclobutoxy]-phenyl}-acetamide] | 0.05 to 0.1 µM | 80.5% | 90.9%
CCS(=O)(=O)c1ccc(CC(=O)Nc2ccc(OC3(c4ccc(Cl)c(F)c4)CCCC3)c(F)c2)cc1 [Example 121, N-{4-[1-(4-Chloro-3-fluorophenyl)-cyclopentyloxy]-3-fluorophenyl}-2-(4-ethanesulfonyl-phenyl)-acetamide] | < 0.05 µM | 86.8% | 90.2%
CCS(=O)(=O)c1ccc(CC(=O)Nc2ccc(OC(C)(C)Cn3c(C)cc4cc(F)ccc43)cc2)cc1 [Example 30, 2-[4-(Ethylsulfonyl)phenyl]-N-(4-{[1-(5-fluoro-2-methyl-1H-indol-1-yl)-2-methylpropan-2-yl]oxy}phenyl)acetamide] | – | 67.7% | 70.7%
CCS(=O)(=O)c1ccc(CC(=O)Nc2ccc(OC3(c4ccc(C(F)(F)F)c(F)c4)COC3)cc2)cc1 [Example 48, (4-Ethanesulfonyl-phenyl)-N-{4-[3-(3-fluoro-4-trifluoromethyl-phenyl)-oxetan-3-yloxy]-phenyl}-acetamide] | – | 60.3% | 77.4%
CCn1c(C(C)(C)Oc2ccc(Cl)cc2)nc2cc(NC(=O)Cc3ccc(S(=O)(=O)CC)cc3)ccc21 [Example 93, N-{2-[1-(4-Chloro-phenoxy)-1-methyl-ethyl]-1-ethyl-1H-benzoimidazol-5-yl}-2-(4-ethanesulfonyl-phenyl)-acetamide] | < 0.05 µM | 83.4% | 87.4%
CCS(=O)(=O)c1ccc(CC(=O)Nc2ccc(OC(C)(C)c3nc4ccc(Cl)cc4n3C)cc2)cc1 [Example 18, N-{4-[1-(6-Chloro-1-methyl-1H-benzoimidazol-2-yl)-1-methyl-ethoxy]-phenyl}-2-(4-ethanesulfonyl-phenyl)-acetamide] | > 0.1 µM | 78.6% | 91%
CCS(=O)(=O)c1ccc(CC(=O)Nc2ccc(OC(C)(C)c3nc4cc(F)ccc4n3C(C)C)cc2)cc1 [Example 20, 2-(4-Ethanesulfonyl-phenyl)-N-{4-[1-(5-fluoro-1-isopropyl-1H-benzoimidazol-2-yl)-1-methyl-ethoxy]-phenyl}-acetamide] | > 0.1 µM | 79.8% | 85.2%
CCS(=O)(=O)c1ccc(CC(=O)Nc2ccc(OC3(c4ccc(Cl)cc4Cl)CCC3)c(F)c2)cc1 [Example 139, N-(4-((1-(2,4-Dichlorophenyl)cyclobutyl)oxy)-3-fluorophenyl)-2-(4-(ethylsulfonyl)phenyl)acetamide] | < 0.05 µM | 86.3% | 82.6%
CCN(C(=O)C(C)(C)Oc1ccc(F)cc1F)c1ccc(NC(=O)Cc2ccc(S(=O)(=O)CC)cc2)cc1 [Example 132, 2-(2,4-Difluorophenoxy)-N-ethyl-N-(4-(2-(4-(ethylsulfonyl)phenyl)acetamido)phenyl)-2-methylpropanamide] | – | 52.9% | 60.9%
